pKi: −log10 of the molar value. Marks after values point to notes of the source that are not given here.
Columns and labels:
[1] = tested on: eosinophils in BALF; test: Ascaris active sensitization-induced mouse eosinophil infiltration test; type: in vivo; conditions: test substance orally administered two times per day, BALF 48 hours after inducement; for Inhibition rate: vs Ascaris-induced group
Experimental: Ascaris (Ascaris suum Antigen in pigs) active sensitization-induced mouse eosinophil infiltration test:
It has been reported that cell infiltration of eosinophil is induced by inducing Ascaris active sensitization {Int. Arch. Immunol., 108, 11-18, (1995)}. In this evaluation method, a test compound was evaluated. A test substance was orally administered two times per day, the total count of cells and the count of eosinophils in BALF 48 hours after inducement were calculated, and the effect was determined by comparing with a non-test substance administered group.
Results of mouse eosinophil infiltration test ^1 anti-VLA-4 antibody, two times/1 day s.c. administration; **p<0.01: vs D, cont by student's t-test

[2] = Dispersibility test in Japanese Pharmacopoeia First and Second Solution; type: physicochemical; conditions: for Dispersibility in Japanese Pharmacopoeia First Solution: JP1, pH 1.2; for Dispersibility in Japanese Pharmacopoeia Second Solution: JP2, pH 6.8
Experimental: Dispersibility of a test substance in Japanese Pharmacopoeia First Solution (JP1, pH 1.2) and Japanese Pharmacopoeia Second Solution (JP2, pH 6.8) was evaluated.

[3] = molecular target: T1, hα4 and β1 integrins (VLA-4) (Homo sapiens, UniProt P05556+P13612); test: In vitro evaluation: inhibition of binding of CHO cells expressing hα4 and β1 integrins to Eu3+-hVCAM-1 D1D7-IgG; conditions: ligand Eu3+-hVCAM-1 D1D7-IgG 2 nM, Ki calculated from IC50
T1 construct: expressed in transfected cells; host or cells: CHO cells
Summary of the method: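 CHO cells stably expressing hα4β1 were cultured 2 days, then incubated 1 h at room temperature with Eu3+-hVCAM-1 D1D7-IgG (added as 2 nM solution) and compound in HEPES pH 7.5 with Ca2+, Mg2+ and 4 mM Mn2+, ± 6% human serum albumin. Bound europium was read by time-resolved fluorescence; IC50 was converted to Ki using Scatchard-derived Kd.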

[4] = Intracorporeal kinetics and oral absorbing property test (dog, oral cassette); type: in vivo; conditions: orally administered, 0.5 mg/kg cassette
Experimental: Intracorporeal Kinetics and Oral Absorbing Property Test: A pharmacokinetic parameter when a test substance was orally administered to a dog by 0.5 mg/kg cassette was as follows.

T1 sequence (P13612 34-1032): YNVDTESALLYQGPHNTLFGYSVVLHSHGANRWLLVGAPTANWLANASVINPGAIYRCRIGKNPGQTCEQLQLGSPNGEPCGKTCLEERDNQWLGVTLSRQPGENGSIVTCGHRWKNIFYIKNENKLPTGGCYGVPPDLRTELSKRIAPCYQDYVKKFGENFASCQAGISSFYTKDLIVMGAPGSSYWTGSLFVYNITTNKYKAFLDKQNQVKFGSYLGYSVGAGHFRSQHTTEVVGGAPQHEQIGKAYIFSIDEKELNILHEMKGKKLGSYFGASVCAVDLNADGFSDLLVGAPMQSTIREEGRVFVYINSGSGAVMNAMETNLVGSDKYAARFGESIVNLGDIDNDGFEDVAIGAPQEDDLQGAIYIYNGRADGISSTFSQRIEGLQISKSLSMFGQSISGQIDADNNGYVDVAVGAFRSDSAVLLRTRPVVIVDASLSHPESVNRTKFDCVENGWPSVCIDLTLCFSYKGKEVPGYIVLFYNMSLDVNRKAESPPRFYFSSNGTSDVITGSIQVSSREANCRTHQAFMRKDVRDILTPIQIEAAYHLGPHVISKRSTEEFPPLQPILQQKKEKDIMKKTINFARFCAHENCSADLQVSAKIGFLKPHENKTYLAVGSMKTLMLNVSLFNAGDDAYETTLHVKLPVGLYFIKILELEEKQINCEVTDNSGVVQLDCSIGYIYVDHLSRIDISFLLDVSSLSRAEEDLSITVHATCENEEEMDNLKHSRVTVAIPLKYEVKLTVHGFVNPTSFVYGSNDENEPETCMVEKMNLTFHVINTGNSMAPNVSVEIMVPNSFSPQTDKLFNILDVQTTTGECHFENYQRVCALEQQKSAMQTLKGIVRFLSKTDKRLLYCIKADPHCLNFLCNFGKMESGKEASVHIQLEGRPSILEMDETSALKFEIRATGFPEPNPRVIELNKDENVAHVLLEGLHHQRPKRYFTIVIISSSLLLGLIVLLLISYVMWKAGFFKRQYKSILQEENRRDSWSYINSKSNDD
T1 sequence (P05556 21-798): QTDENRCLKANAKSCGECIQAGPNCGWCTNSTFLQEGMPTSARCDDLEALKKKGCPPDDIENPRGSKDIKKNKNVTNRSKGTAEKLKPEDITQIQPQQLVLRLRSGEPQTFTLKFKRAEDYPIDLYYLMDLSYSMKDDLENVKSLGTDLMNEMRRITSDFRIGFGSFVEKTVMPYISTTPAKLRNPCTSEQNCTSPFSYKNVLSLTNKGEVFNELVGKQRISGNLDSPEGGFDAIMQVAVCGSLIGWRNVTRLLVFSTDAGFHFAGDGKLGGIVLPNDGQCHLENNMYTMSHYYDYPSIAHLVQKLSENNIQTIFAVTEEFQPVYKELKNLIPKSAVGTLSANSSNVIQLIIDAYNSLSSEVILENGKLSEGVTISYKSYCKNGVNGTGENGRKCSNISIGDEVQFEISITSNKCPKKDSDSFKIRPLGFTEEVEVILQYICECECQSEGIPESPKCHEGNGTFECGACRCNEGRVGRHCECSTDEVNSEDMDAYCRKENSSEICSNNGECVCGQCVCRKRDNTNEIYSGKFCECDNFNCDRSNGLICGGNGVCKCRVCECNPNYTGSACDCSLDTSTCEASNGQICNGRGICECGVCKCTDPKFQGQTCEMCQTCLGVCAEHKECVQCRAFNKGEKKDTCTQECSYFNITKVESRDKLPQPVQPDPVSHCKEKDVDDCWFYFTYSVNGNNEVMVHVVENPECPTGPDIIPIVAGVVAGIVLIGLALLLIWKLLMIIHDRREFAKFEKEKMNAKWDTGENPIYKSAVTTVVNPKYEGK

| SMILES | Average total eosinophil count [1] | Inhibition rate [1] | Dispersibility in Japanese Pharmacopoeia First Solution [2] | Dispersibility in Japanese Pharmacopoeia Second Solution [2] | pKi [3] | Cltot (apparent plasma clearance) [4] | AUC (total area under the plasma concentration versus time curve) ([4]; LC/MS/MS) |
| --- | --- | --- | --- | --- | --- | --- | --- |
| CO[C@H]1C[C@@H](c2ncc(CCC(=O)O)s2)N(C(=O)Cc2cc(Cl)c(NC(=O)c3cn(C)c4ccccc34)cc2Cl)C1 [Example 1, 3-[2-[1-[2,5-Dichloro-4-(1-methyl-3-indolylcarbonylamino)phenylacetyl]-(4S)-methoxy-(2S)-pyrrolidinyl]-5-thiazolyl]propionic acid] | 1.52 ×10^5 | 57** % | 33 µg/mL | >2000 µg/mL | 8.89 | 1.23 mL/min/kg | 7040 ng·h/mL |
| Cn1cc(C(=O)Nc2cc(Cl)c(CC(=O)N3C[C@@H](N4CCCCC4)C[C@H]3c3ncc(CCC(=O)O)s3)cc2Cl)c2ccccc21 [Example 46, 3-[2-[1-[2,5-Dichloro-4-(1-methyl-3-indolylcarbonylamino)phenylacetyl]-(4S=)=1-piperidinyl-(2S)-pyrrolidinyl]-5-thiazolyl]propionic acid] | 1.44 ×10^5 | 53** % | >2000 µg/mL | 570 µg/mL | 8.80 |  |  |

From patent US20070232601A1, “Vla-4 Inhibitor” (priority 2004, published 2007)
